Reference: patent publication US20250242064A1, “CXCR4-TARGETING COMPOUNDS, AND METHODS OF MAKING AND USING THE SAME” (PROVINCIAL HEALTH SERVICES AUTHORITY, priority 2022, published 2025)
Where a SMILES comes first, the peptide text is derived from it. Bridges are numbered along the chain shown (N, C = ends). Side-chain parts run from the residue outwards. [ ]: non-standard residue; d: D form. The star is where a group is joined. X5 = O=C(O)CN1CCN(CC(=O)O)CCN(CC(=O)N[C@@H](CS(=O)(=O)O)C(=O)N[C@@H](CCCCNC(=O)CCCc2ccc(Cl)cc2)C(=O)*)CCN(CC(=O)O)CC1; X1 = O=C(O)CN1CCN(CC(=O)O)CCN(CC(=O)N[C@@H](CS(=O)(=O)O)C(=O)N[C@@H](CCCCNC(=O)CCCc2ccc(I)cc2)C(=O)*)CCN(CC(=O)O)CC1; DOTA = O=C(O)CN1CCN(CC(=O)O)CCN(CC(=O)*)CCN(CC(=O)O)CC1; NMeLys(iPr) = CN[C@@H](CCCCNC(C)C)C(=O)O; 2Nal = N[C@@H](Cc1ccc2ccccc2c1)C(=O)O; Lys(iPr) = CC(C)NCCCC[C@H](N)C(=O)O; Cya = N[C@@H](CS(=O)(=O)O)C(=O)O

Experiment: in vivo
Set-up: species or system mice
Conditions: male, NOD.Cg-Rag1tm1Mom Il2rgtm1Wjl/SzJ (NRG), mouse, iv, total radioactivity
Description: The Z138 Mantle cell lymphoma cell line was purchased from the American Type Culture Collection (ATCC©CRL-3001). The cell line was cultured in a 5% CO2 atmosphere at 37° C. in a humidified incubator with IMDM medium supplemented with 10% fetal bovine serum, 100 I.U./mL penicillin, and 100 μg/mL streptomycin.
[^68Ga]GaCl3 was eluted from an iThemba Labs generator with a total of 4 mL of 0.1 M HCl. The eluted [^68Ga]GaCl3 solution was added to 2 mL of concentrated HCl. This radioactive mixture was then added to a DGA resin column and washed with 3 mL of 5 M HCl. The column was then dried with air and the [^68Ga]GaCl3 (0.10-0.50 GBq) was eluted with 0.5 mL of water into a vial containing a solution of the unlabeled precursor (25 μg) in 0.7 mL HEPES buffer (2 M, pH 5.3). The reaction mixture was heated in a microwave oven (Danby; DMW7700WDB) for 1 min at power setting 2. The mixture was purified by semi-prep HPLC and quality control was performed via analytical HPLC with the co-injection of the unlabeled standard with a one-twelfth of the radiotracer. Radiochemical yields (decay-corrected) were >50% and radiochemical purities were >95%.
Animal experiments were performed in accordance with guidelines established by the Canadian Council on Animal Care, under a research protocol approved by the Animal Ethics Committee of the University of British Columbia. For all studies, male NOD.Cg-Rag1tm1Momll2rgtm1Wjl/SzJ (NRG) mice were used and cells injected in a 100 μL solution of 1:1 ratio of PBS/Matrigel. For preclinical imaging and biodistribution studies, 5×10^6 cells of Z138, cells were subcutaneously inoculated on the left or right flank and tumors were grown to a size of 200-300 mm^3. […]
Under isoflurane anesthesia (2-2.5% isoflurane in 2 L/min 02), mice were injected intravenously with [^68Ga]Ga-BL34L6 or [^68Ga]Ga-BL34L7. Mice were euthanized by CO2 inhalation after anesthesia with isoflurane. Tissues were harvested, washed in PBS, patted dry, weighed, and then assayed radioactivity on a gamma counter. Counted radioactivities were converted to percentage injected dose per gram of tissue (% ID/g) using a calibration curve.

[1] = Biodistribution: Small Intestine

| Compound | tissue uptake at 1 h (Biodistribution: Adrenals) | tissue uptake at 1 h (Biodistribution: Blood) | tissue uptake at 1 h (Biodistribution: Bone) | tissue uptake at 1 h (Biodistribution: Brain) | tissue uptake at 1 h (Biodistribution: Heart) | tissue uptake at 1 h (Biodistribution: Kidneys) | tissue uptake at 1 h (Biodistribution: Liver) | tissue uptake at 1 h (Biodistribution: Lungs) | tissue uptake at 1 h (Biodistribution: Muscle) | tissue uptake at 1 h (Biodistribution: Pancreas) | tissue uptake at 1 h [1] | tissue uptake at 1 h (Biodistribution: Spleen) | tissue uptake at 1 h (Biodistribution: Stomach) | tissue uptake at 1 h (Biodistribution: Testes) | tissue uptake at 1 h (Biodistribution: Z138 Tumor) | tissue to tissue ratio at 1 h (Ratio Tumor-to-Blood) | tissue to tissue ratio at 1 h (Ratio Tumor-to-Bone) | tissue to tissue ratio at 1 h (Ratio Tumor-to-Kidney) | tissue to tissue ratio at 1 h (Ratio Tumor-to-Muscle) | tissue to tissue ratio at 1 h (Ratio Tumor-to-Pancreas) | also measured |
| --- | --- | --- | --- | --- | --- | --- | --- | --- | --- | --- | --- | --- | --- | --- | --- | --- | --- | --- | --- | --- | --- |
| CC(C)NCCCC[C@H](NC(=O)[C@H]1CCC(=O)N[C@@H](CCCCNC(=O)[C@H](CCCCNC(=O)CCCc2ccc(I)cc2)NC(=O)[C@H](CS(=O)(=O)O)NC(=O)CN2CCN(CC(=O)O)CCN(CC(=O)O)CCN(CC(=O)O)CC2)C(=O)N[C@@H](Cc2ccc(O)cc2)C(=O)N[C@@H](CCCCNC(C)C)C(=O)N[C@H](CCCNC(=N)N)C(=O)N[C@@H](Cc2ccc3ccccc3c2)C(=O)N[C@H](C)C(=O)N1)C(N)=O [[^68Ga]Ga-BL34L11, metal not drawn] (K(X1)Y[Lys(iPr)][dR][2Nal][dA][dE][Lys(iPr)]-NH2; lactam N-7) | 4.99 %ID/g | 18.7 %ID/g | 1.53 %ID/g | 0.29 %ID/g | 4.53 %ID/g | 5.39 %ID/g | 3.7 %ID/g | 8.36 %ID/g | 1.39 %ID/g | 1.67 %ID/g | 1.28 %ID/g | 2.35 %ID/g | 0.97 %ID/g | 2.14 %ID/g | 6.55 %ID/g | 0.35 | 4.32 | 1.27 | 4.85 | 3.91 | tissue uptake at 3 h (Biodistribution: Adrenals): 2.34 %ID/g; tissue uptake at 3 h (Biodistribution: Blood): 13.4 %ID/g; tissue uptake at 3 h (Biodistribution: Bone): 1.23 %ID/g; tissue uptake at 3 h (Biodistribution: Brain): 0.22 %ID/g; tissue uptake at 3 h (Biodistribution: Heart): 3.17 %ID/g; tissue uptake at 3 h (Biodistribution: Kidneys): 3.9 %ID/g; tissue uptake at 3 h (Biodistribution: Liver): 3.02 %ID/g; tissue uptake at 3 h (Biodistribution: Lungs): 6.64 %ID/g; tissue uptake at 3 h (Biodistribution: Muscle): 1.08 %ID/g; tissue uptake at 3 h (Biodistribution: Pancreas): 1.42 %ID/g; tissue uptake at 3 h [1]: 1.11 %ID/g; tissue uptake at 3 h (Biodistribution: Spleen): 2 %ID/g; tissue uptake at 3 h (Biodistribution: Stomach): 0.48 %ID/g; tissue uptake at 3 h (Biodistribution: Testes): 2.59 %ID/g; tissue uptake at 3 h (Biodistribution: Z138 Tumor): 11.3 %ID/g; tissue to tissue ratio at 3 h (Ratio Tumor-to-Blood): 0.85; tissue to tissue ratio at 3 h (Ratio Tumor-to-Bone): 10.3; tissue to tissue ratio at 3 h (Ratio Tumor-to-Kidney): 2.91; tissue to tissue ratio at 3 h (Ratio Tumor-to-Muscle): 10.5; tissue to tissue ratio at 3 h (Ratio Tumor-to-Pancreas): 7.95 |
| CC(C)NCCCC[C@H](NC(=O)[C@H]1CCC(=O)N[C@@H](CCCCNC(=O)[C@H](CCCCNC(=O)CCCc2ccc(Cl)cc2)NC(=O)[C@H](CS(=O)(=O)O)NC(=O)CN2CCN(CC(=O)O)CCN(CC(=O)O)CCN(CC(=O)O)CC2)C(=O)N[C@@H](Cc2ccc(O)cc2)C(=O)N[C@@H](CCCCNC(C)C)C(=O)N[C@H](CCCNC(=N)N)C(=O)N[C@@H](Cc2ccc3ccccc3c2)C(=O)N[C@H](C)C(=O)N1)C(N)=O [[^68Ga]Ga-BL34L16, metal not drawn] (K(X5)Y[Lys(iPr)][dR][2Nal][dA][dE][Lys(iPr)]-NH2; lactam N-7) | 1.63 %ID/g | 7.27 %ID/g | 2.65 %ID/g | 0.11 %ID/g | 1.66 %ID/g | 3.56 %ID/g | 2.61 %ID/g | 5.9 %ID/g | 0.61 %ID/g | 0.76 %ID/g | 0.86 %ID/g | 2.48 %ID/g | 0.26 %ID/g | 1.16 %ID/g | 10.1 %ID/g | 1.38 | 6.11 | 2.83 | 16.8 | 13.6 | tissue uptake at 3 h (Biodistribution: Adrenals): 0.7 %ID/g; tissue uptake at 3 h (Biodistribution: Blood): 2.7 %ID/g; tissue uptake at 3 h (Biodistribution: Bone): 2.01 %ID/g; tissue uptake at 3 h (Biodistribution: Brain): 0.06 %ID/g; tissue uptake at 3 h (Biodistribution: Heart): 0.67 %ID/g; tissue uptake at 3 h (Biodistribution: Kidneys): 2.2 %ID/g; tissue uptake at 3 h (Biodistribution: Liver): 2.33 %ID/g; tissue uptake at 3 h (Biodistribution: Lungs): 2.85 %ID/g; tissue uptake at 3 h (Biodistribution: Muscle): 0.32 %ID/g; tissue uptake at 3 h (Biodistribution: Pancreas): 0.31 %ID/g; tissue uptake at 3 h [1]: 0.41 %ID/g; tissue uptake at 3 h (Biodistribution: Spleen): 2.05 %ID/g; tissue uptake at 3 h (Biodistribution: Stomach): 0.16 %ID/g; tissue uptake at 3 h (Biodistribution: Testes): 0.68 %ID/g; tissue uptake at 3 h (Biodistribution: Z138 Tumor): 15.2 %ID/g; tissue to tissue ratio at 3 h (Ratio Tumor-to-Blood): 5.74; tissue to tissue ratio at 3 h (Ratio Tumor-to-Bone): 19.3; tissue to tissue ratio at 3 h (Ratio Tumor-to-Kidney): 6.92; tissue to tissue ratio at 3 h (Ratio Tumor-to-Muscle): 50.4; tissue to tissue ratio at 3 h (Ratio Tumor-to-Pancreas): 50.7 |
| CC(C)NCCCC[C@H](NC(=O)[C@H]1CCC(=O)N[C@@H](CCCCNC(=O)[C@H](CS(=O)(=O)O)NC(=O)CN2CCN(CC(=O)O)CCN(CC(=O)O)CCN(CC(=O)O)CC2)C(=O)N[C@@H](Cc2ccc(O)cc2)C(=O)N(C)[C@@H](CCCCNC(C)C)C(=O)N[C@H](CCCNC(=N)N)C(=O)N[C@@H](Cc2ccc3ccccc3c2)C(=O)N[C@H](C)C(=O)N1)C(N)=O [[^68Ga]Ga-BL34N1, metal not drawn] (K([Cya-DOTA])Y[NMeLys(iPr)][dR][2Nal][dA][dE][Lys(iPr)]-NH2; lactam N-7) | 0.17 %ID/g | 0.32 %ID/g | 0.13 %ID/g | 0.02 %ID/g | 0.12 %ID/g | 2.7 %ID/g | 0.71 %ID/g | 0.44 %ID/g | 0.09 %ID/g | 0.08 %ID/g | 0.19 %ID/g | 0.26 %ID/g | 0.05 %ID/g | 0.18 %ID/g | 12 %ID/g | 37.7 | 92.2 | 4.6 | 157 | 146 |  |
